Series [1] can be described thus: Phase Ib study in mPDAC patients, safety and adverse events. It is filed as in vivo, human. The note with it: in combination with gemcitabine and nab-paclitaxel. The source says: The effects of 2-acetylnaphtho[2,3-b]furan-4,9-dione, a compound of formula (I), in combination with gemcitabine and nab-paclitaxel in patients with metastatic pancreatic ductal adenocarcinoma (mPDAC) were studied in a Phase Ib extension, open label, multi-center study.
In that clinical study, the safety, tolerability and the recommended Phase II dose (RP2D), PK profile, and signs of anti-cancer activity of 2-acetylnaphtho[2,3-b]furan-4,9-dione in combination with nab-paclitaxel and gemcitabine were assessed in adult patients with metastatic pancreatic cancer. In each treatment cycle, 2-acetylnaphtho[2,3-b]furan-4,9-dione was administered at 240 mg BID for 4 weeks in combination with nab-paclitaxel 125 mg/m^2 and gemcitabine 1000 mg/m^2 administered weekly for 3 out of the 4 weeks. The treatment continued in 28-day cycles.
The patients received continuous oral administration of BBI-608 twice daily in 28 day cycles. A standard gemcitabine and nab-paclitaxel regimen was administered on days 1, 8 and 15 of every 28 day study cycle. Specifically, BBI-608 was administered at 240 mg BID in combination with gemcitabine 1000 mg/m^2 and nab-paclitaxel 125 mg/m^2 administered weekly for 3 out every 4 weeks until progression of disease, unacceptable toxicity, or another discontinuation criterion was met. Pharmacokinetics and pharmacodynamics were evaluated and objective tumor response was assessed every 8 weeks using Response Evaluation Criteria In Solid Tumors (RECIST 1.1).

The test system of the next series is STAT3. In words: Clinical trials, overall survival by STAT3/pSTAT3 level. To be noted: patients with higher expression levels of STAT3 (pSTAT3 before treatment), at least in CRC patients. In kind it is in vivo, human. The text has this: Thus, the higher the level of pSTAT3 found in a cancer patient before treatment, at least in CRC patients, the higher the overall survival (OS) upon administering a treatment comprising at least one compound of formula (I).

For series [2], the system named is Paca-2 human pancreatic cancer. The experiment in a line: Human PDAC xenograft tumor (Paca-2) in nude mice. It is filed as in vivo. The text has this: FIGS. 5A and 5B show an exemplary effect of a 2-acetylnaphtho[2,3-b]furan-4,9-dione and gemcitabine treatment on pancreatic ductal adenocarcinoma (PDAC) in an xenograft tumor mouse model according to certain embodiments of the present disclosure.
The effects of 2-acetylnaphtho[2,3-b]furan-4,9-dione, a compound of formula (I), on a human PDAC xenograft tumor (Paca-2) in nude mice were studied. Specifically, immunosuppressed mice with Paca-2 human pancreatic cancer were given 2-acetylnaphtho[2,3-b]furan-4,9-dione (20 mg/kg) or vehicle control IP daily or gemcitabine (120 mg/kg) or vehicle control IP every 3 days. Tumor size was evaluated periodically during treatment. Each point represents the mean+SEM of five tumors.

For the next series, the system named is STAT3 pathway. To be noted: according to U.S. Pat. No. 8,877,803; read-out: STAT3 pathway activity, cellular IC50; cited from earlier work.
A further series has as its target T1, human p-STAT3 (Homo sapiens, UniProt P40763).
T1 construct: p-STAT3 and β-CATENIN protein levels in human colon cancer xenograft tumor (SW480) in nude mice; endogenous in cells; host or cells: SW480 human colon cancer xenograft tumor in nude mice
The experiment in a line: Immunofluorescence staining of xenograft tumor cells for p-STAT3. It is filed as in vivo. To be noted: human colon cancer xenograft tumor (SW480) in nude mice; treated vs control. The text has this:
(§1) The effects of 2-acetylnaphtho[2,3-b]furan-4,9-dione, a compound of formula (I), to tumor cells were studied by analyzing the tumor cells treated with the compound or without the compound (control) with immunofluorescence staining using antibodies specific for human p-STAT3 and 13-CATENIN.
In general terms: In xenograft studies the graft and the host belong to different species.

The next series concerns β-CATENIN. The experiment in a line: Immunofluorescence staining of xenograft tumor cells for β-CATENIN. In kind it is in vivo. To be noted: human colon cancer xenograft tumor (SW480) in nude mice; treated vs control.
From the text: as §1

The subject of series [3] is human pancreatic adenocarcinoma (Panc-1). In words: Human pancreatic adenocarcinoma (Panc-1) xenograft in immunosuppressed mice. In kind it is in vivo. The source says:
FIG. 6 show an exemplary effect of 2-acetylnaphtho[2,3-b]furan-4,9-dione, gemcitabine (Gemzar), and the combination of 2-acetylnaphtho[2,3-b]furan-4,9-dione and gemcitabine treatment on tumor volume in an xenograft tumor mouse model according to certain embodiments of the present disclosure.
The effects of 2-acetylnaphtho[2,3-b]furan-4,9-dione, a compound of formula (I), gemcitabine, and a combination of 2-acetylnaphtho[2,3-b]furan-4,9-dione and gemcitabine were studied. Specifically, immunosuppressed mice with established human pancreatic adenocarcinoma (Panc-1) were treated with vehicle control, 2-acetylnaphtho[2,3-b]furan-4,9-dione (100 mg/kg, PO, bid), gemcitabine (Gemzar, 80 mg/kg, IV, q3d), or the combination of 2-acetylnaphtho[2,3-b]furan-4,9-dione and gemcitabine. Tumor size was evaluated periodically during treatment. Each point represents the mean+SEM of five tumors.

The source of these data is patent publication US20190076392A1, “METHODS FOR TREATING CANCER” (Boston Biomedical, Inc., priority 2016, published 2019).

T1 sequence (P40763 whole entry): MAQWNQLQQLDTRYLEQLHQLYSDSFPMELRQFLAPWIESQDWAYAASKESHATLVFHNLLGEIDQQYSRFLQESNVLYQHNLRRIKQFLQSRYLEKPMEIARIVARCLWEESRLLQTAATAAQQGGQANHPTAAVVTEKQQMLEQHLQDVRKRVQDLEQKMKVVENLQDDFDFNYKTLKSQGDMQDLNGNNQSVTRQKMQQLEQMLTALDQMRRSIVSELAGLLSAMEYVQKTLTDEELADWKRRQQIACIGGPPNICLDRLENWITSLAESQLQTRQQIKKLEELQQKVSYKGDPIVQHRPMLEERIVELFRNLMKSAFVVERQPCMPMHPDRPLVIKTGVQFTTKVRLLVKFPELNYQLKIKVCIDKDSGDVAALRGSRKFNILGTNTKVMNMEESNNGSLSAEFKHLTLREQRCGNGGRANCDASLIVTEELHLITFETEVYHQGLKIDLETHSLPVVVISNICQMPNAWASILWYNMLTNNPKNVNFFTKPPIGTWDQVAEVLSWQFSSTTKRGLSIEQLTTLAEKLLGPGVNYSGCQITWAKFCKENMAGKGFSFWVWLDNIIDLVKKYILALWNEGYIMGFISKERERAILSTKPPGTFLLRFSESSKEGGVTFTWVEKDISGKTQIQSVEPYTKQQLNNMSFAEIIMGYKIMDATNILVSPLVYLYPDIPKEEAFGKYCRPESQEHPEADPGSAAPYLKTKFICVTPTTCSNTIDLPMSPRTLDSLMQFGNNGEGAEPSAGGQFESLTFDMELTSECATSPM

Regarding `CC(=O)c1cc2c(o1)C(=O)c1ccccc1C2=O` [2-acetylnaphtho[2,3-b]furan-4,9-dione], in series [1], the “grade 3 AEs related to napabucasin, number of patients” value amounted to 9 patients; the “grade 3 dehydration related to napabucasin, number of patients” value was 1 patient; the “grade 3 diarrhea related to napabucasin, number of patients” value is 1 patient; the “grade 3 fatigue related to napabucasin, number of patients” value is listed as 5 patients. In series [1], the “grade 3 hypokalemia related to napabucasin, number of patients” value is reported as 1 patient; the “grade 3 nausea related to napabucasin, number of patients” value is on record as 1 patient; the “most common adverse events (AEs) related to napabucasin” value was “grade 1 diarrhea, abdominal pain, nausea, and fatigue”. The “overall survival after treatment” value in the series with STAT3 is given as “prolonged overall survival”. In addition, in series [2] (20 mg/kg IP daily), the “tumor growth (tumor size)” value was “effective at inhibiting tumor growth”. Also, in the series with STAT3 pathway, the IC50 – broadly, the midpoint of a concentration-inhibition curve – was about 250 nM. Further, the “tumor cells with positive staining for human p-STAT3” value on human p-STAT3 is “effectively inhibited”. Moreover, the “tumor cells with positive staining for β-CATENIN” value in the series on β-CATENIN is “effectively inhibited”. For the same compound, in series [3] (100 mg/kg, PO, bid), the “tumor growth (tumor size)” value is reported as “certain effects in inhibiting tumor growth”.
On to `Nc1ccn([C@@H]2O[C@H](CO)[C@@H](O)C2(F)F)c(=O)n1` [gemcitabine, reference compound], for which the “tumor growth (tumor size)” value in series [2] (120 mg/kg IP every 3 days) was “only a marginal effect on tumor growth”; in series [3] (Gemzar, 80 mg/kg, IV, q3d) it was “certain effects in inhibiting tumor growth”.
